# Test results published in ChEMBL document CHEMBL1129166, “Design and synthesis of novel, pseudo C2 symmetric inhibitors of HIV protease” (Bioorg Med Chem Lett, 1996).
# Assays:
# [1] = molecular target: Human immunodeficiency virus type 1 protease (Human immunodeficiency virus 1, UniProt Q72874); assay: Compound was evaluated for the inhibition of HIV protease
# [2] = molecular target: Human immunodeficiency virus type 1 protease (Human immunodeficiency virus 1) (UniProt Q72874); assay: Compound was evaluated for the inhibition of HIV protease at 0.5 uM
SMILES,IC50 [1] [µM],inhibition [2] [%]
CC(C)[C@H](NC(=O)OCc1ccccc1)C(=O)N[C@@H](Cc1ccccc1)CC1(C[C@H](Cc2ccccc2)NC(=O)[C@@H](NC(=O)OCc2ccccc2)C(C)C)CCC(=O)N1,2.7,–
CC(C)C(NC(=O)OCc1ccccc1)C(=O)N[C@H](CC[C@H](O)[C@H](Cc1ccccc1)NC(=O)C(NC(=O)OCc1ccccc1)C(C)C)Cc1ccccc1 (stereo not given in full),> 0.001,62
CC(C)[C@H](NC(=O)N(C)Cc1ccccn1)C(=O)N[C@@H](Cc1ccccc1)[C@H](O)[C@H](O)[C@H](Cc1ccccc1)NC(=O)[C@@H](NC(=O)N(C)Cc1ccccn1)C(C)C [A-77003],> 0.001,57
O=C(Nc1ccccc1C(=O)N[C@H](CC[C@H](O)[C@H](Cc1ccccc1)NC(=O)c1ccccc1NC(=O)OCc1ccccn1)Cc1ccccc1)OCc1ccccn1,0.014,–
O=C(N[C@H](CC[C@H](O)[C@H](Cc1ccccc1)NC(=O)c1ccccc1NS(=O)(=O)c1ccccn1)Cc1ccccc1)c1ccccc1NS(=O)(=O)c1ccccn1,> 3,–
CC(C)C(NC(=O)OCc1ccccc1)C(=O)N[C@H](CC[C@@H](O)[C@H](Cc1ccccc1)NC(=O)C(NC(=O)OCc1ccccc1)C(C)C)Cc1ccccc1 (stereo not given in full),0.2,–
CC(C)C(NC(=O)OCc1ccccc1)C(=O)N[C@@H](Cc1ccccc1)CC(C[C@H](Cc1ccccc1)NC(=O)C(NC(=O)OCc1ccccc1)C(C)C)[N+](=O)[O-] (stereo not given in full),1.5,–
CC(C)(C)OC(=O)N[C@H](CC[C@H](O)[C@H](Cc1ccccc1)NC(=O)OC(C)(C)C)Cc1ccccc1,0.38,–
